Experimental data as given in paper PMC3893781, “Triterpenoid Saponins Isolated from Platycodon grandiflorum Inhibit Hepatitis C Virus Replication” (Evidence-based Complementary and Alternative Medicine : eCAM, 2013).
Converted amounts (≈) assume the structure as drawn. Read-outs that look alike come from different tables or passages of the source.

How the values were obtained:
[1] = system: HCV replicon cells (genotype 1b); assay: In vitro combination studies (CalcuSyn combination index); assay type: cell-based, HCV genotype 1b; conditions: in combination with PGSM; for Combination Index at EC50 / Combination Index at EC75 / Combination Index at EC90: 72 h, CalcuSyn; for Effect of combination: CI < 1 synergistic
Experimental: HCV Replicon cells were treated with various concentrations of inhibitors in twofold serial dilutions at a final dimethyl sulfoxide concentration of 1% including titrations of each of the compounds alone as reference controls. […] At three days after treatments, intracellular HCV RNA levels were determined by qRT-PCR. For the Loewe additive model, the experimental data were analyzed by using CalcuSyn (Biosoft, Ferguson, Mo.), a computer program based on the method of Chou and Talalay. A combination index (CI) value for each experimental combination was calculated by a quantitative measure of the degree of drug interaction in terms of additive effect (CI = 1), synergism (CI < 1), or antagonism (CI > 1) for a given endpoint of the effect measurement.

[2] = molecular target: T1, HCV NS5B polymerase (NS5BCΔ21) (Hepatitis C virus genotype 1b, UniProt Q9WMX2); assay: RdRp assay with recombinant HCV NS5B polymerase; assay type: biochemical, HCV genotype 1b
T1 construct: HCV NS5B polymerase from HCV genotype 1b carrying an N-terminal GST-tag and C-terminal 21-amino acid truncation (NS5BCΔ21); made in house; host or cells: Escherichia coli
Experimental: Recombinant HCV NS5B polymerase from HCV genotype 1b carrying an N-terminal GST-tag and C-terminal 21-amino acid truncation (NS5BCΔ21) was expressed in Escherichia coli and purified as previously described with some modifications. The colorimetric reverse transcriptase assay kit (Roche Applied Science) was applied to perform RdRp assay. The inhibition of HCV RdRp activity was determined by the amount of double-stranded RNA synthesized by the recombinant NS5BΔC21 in the presence of various test compounds using HCV 3′-UTR as a template.

[3] = molecular target: T2, HCV NS3/4A protease (Hepatitis C virus genotype 1b, UniProt Q9WMX2); assay: biochemical; assay type: biochemical; conditions: FRET peptide substrate; read-out: HCV enzyme (IC50) HCV NS3/4A
T2 construct: HCV-NS3/4A protease purified from E. coli; host or cells: E. coli
Experimental: The NS3/4A serine protease assay was performed using a HCV protease assay kit (SensoLyte, AnaSpec, Fremont, CA) according to the manufacturer's instructions. Briefly, HCV-NS3/4A protease purified from E. coli was mixed with the test compound in the assay buffer. After 15 min incubation at room temperature, EDANS/DABCYL-based fluorescence resonance energy transfer (FRET) peptide substrate solution was added and mixed. The FRET substrate was cleaved specifically by HCV NS3/4A protease, thereby liberating the C-terminal peptide-fluorophore fragment from the proximity quenching effect of the dark quencher, resulting in increase of fluorescence. The fluorescence intensity was measured immediately and continuously at excitation/emission at 340 nm and 490 nm.

[4] = system: HCV subgenomic replicon (genotype 1b) in Huh7 cells; assay: Anti-HCV assay in HCV replicon cells (qRT-PCR); assay type: cell-based, HCV genotype 1b; conditions: Hepatitis C virus, Huh-7, 72 h, read-out: Inhibition of HCV RNA replication (EC50) CON1 (genotype 1b)
Experimental: Huh7 cells harboring HCV subgenomic replicon (genotype 1b) were maintained in the presence of 0.25 mg/mL G418 (Invitrogen, Carlsbad, CA). HCV replicon cells were seeded at a density of 1 × 10^4 cells/well in a 96-well plate and incubated at 37°C and 5% CO2. Following 24 h incubation, the culture medium was replaced with a medium containing serially diluted test compounds in the presence of 2% FBS and 1% DMSO. After cells were treated for 72 h with PGMS and triterpenoid saponins, total RNAs were extracted using a CellAmp Direct RNA Prep Kit (Korea Biomedical, Seoul, Korea). The HCV RNA levels were quantified by a quantitative real-time polymerase chain reaction (qRT-PCR) assay using IQ5 real-time PCR detection system (Bio-Rad, Hercules, CA, USA) with HCV-specific primers (5′-GACACTCCACCATAGATCACTC-3′ and 5′-CCC AAC ACT ACT CGG CTA G-3′) and probe (5′-FAM-CCCAAATCTCCAGGCATTGAGCGG-3′ BHQ-1). Results were normalized to glyceraldehyde-3-phosphate dehydrogenase gene (GAPDH). Anti-HCV activity was determined by HCV RNA levels in compound-treated cells as compared to mock-treated cells.

[5] = system: JFH1 viruses (HCV genotype 2a) in Huh7 cells; assay: Anti-HCV assay in HCVcc-infected cells (qRT-PCR); assay type: cell-based; conditions: Hepatitis C virus, Huh-7, 48 h, read-out: Inhibition of HCV RNA replication (EC50) JHF-1 (genotype 2a)
Experimental: Infectious JFH1 viruses (HCV genotype 2a) were generated as described previously. Huh7 cells were seeded in 24-well plates at a density of 5 × 10^4 cells per well. At 24 h after plating, cells were infected with JFH1 viruses for 2 h. After incubation, the supernatants were replaced with fresh medium. Increasing concentrations of PGMS and its triterpenoid saponins were added in a medium containing 2% DMSO, and cells were incubated at 37°C. At 48 h after infection, total RNAs were extracted and the HCV RNA levels were quantified by qRT-PCR assay. Anti-HCV activity was determined by HCV RNA levels in compound-treated cells as compared to mock-treated cells.

[6] = Cell viability assay (MTT); assay type: cell-based; conditions: human, Huh7 cells, read-out: Cytotoxicity (CC50)
Experimental: Cell viability was determined by the colorimetric 3-(4,5-dimethylthiazol-2-yl)-2,5-diphenyltetrazolium bromide (MTT) reagent (Promega Corporation) according to the manufacturer's instructions. The absorbance was detected at 570 nm using a Bio-Tek plate reader (Bio-Tek instrument, Weymouth, MA).

[7] = system: HCV subgenomic replicon cells (genotype 1b); assay: Anti-HCV assay for 14 days; assay type: cell-based, HCV genotype 1b
Experimental: HCV replicon cells were plated at 2 × 10^5 cells per well in a 6-well plate. Each compound was serially diluted in DMEM containing 10% FBS and 0.2% DMSO as reported previously. Culture media were replaced with fresh medium and compounds every 3 days. Cells were harvested at 3, 6, 9, and 14 days and intracellular HCV RNA levels were analyzed by qRT-PCR. The relative copy number of HCV RNA per cell was calculated by comparing RNAs in cells treated with each compound with those RNAs in cells treated with 0.2% DMSO.

[8] = system: Huh7 cells harboring HCV subgenomic replicon (genotype 1b); assay: Colony forming assay; assay type: cell-based, HCV genotype 1b; conditions: 5 U/mL of IFN-α alone, three weeks, G418
Description: G418 was included in the media to provide selective pressure on HCV replicon cells. After three weeks of treatment, surviving cells were stained with crystal violet [23].

[9] = read-out: HCV enzyme (IC50) HCV NS5B RdRp activity, recombinant NS5B, HCV 3′-UTR template

With COC(=O)N[C@H](C(=O)N1CCC[C@H]1c1nc(-c2ccc(-c3ccc(-c4c[nH]c([C@@H]5CCCN5C(=O)[C@@H](NC(=O)OC)C(C)C)n4)cc3)cc2)c[nH]1)C(C)C [BMS790052, Daclatasvir] the “Combination Index at EC50” value [1] was 0.41, the “Combination Index at EC75” value [1] was 0.42 and the “Combination Index at EC90” value [1] was 0.44. The Effect of combination [1] was “Synergistic”.
Work on CC1OC(OC2C(OC(=O)C34CCC(C)(C)CC3C3=CCC5C6(C)CC(O)C(OC7OC(COC8OC(CO)C(O)C(O)C8O)C(O)C(O)C7O)C(CO)(CO)C6CCC5(C)C3(C)CC4O)OC(CO)C2O)C(O)C(O)C1OC1OCC(O)C(OC2OCC(O)(CO)C2O)C1O (stereo not drawn) [Platycodin D3, platycodin D3] yielded an IC50 [2, 9] of 5.77 µM, an IC50 [3] of over 72.1 µM and an EC50 [4] of 2.33 µg/mL (≈ 1.68 µM). The EC50 [5] was 27 µg/mL (≈ 19.5 µM) and the CC50 [6] was 100 µg/mL (≈ 72.1 µM).
For CC(C)(C)OC(=O)N[C@H]1CCCCC/C=C\[C@@H]2C[C@@]2(C(=O)NS(=O)(=O)C2CC2)NC(=O)[C@@H]2C[C@@H](OC(=O)N3Cc4cccc(F)c4C3)CN2C1=O [R7227, Danoprevir], the “Combination Index at EC50” value [1] was 0.72, the “Combination Index at EC75” value [1] was 0.71 and the “Combination Index at EC90” value [1] was 0.70. The Effect of combination [1] was “Synergistic”.
C[C@@H]1O[C@@H](O[C@H]2[C@H](OC(=O)[C@]34CCC(C)(C)C[C@H]3C3=CC[C@@H]5[C@@]6(C)C[C@H](O)[C@H](O[C@@H]7O[C@H](CO)[C@@H](O)[C@H](O)[C@H]7O)C(CO)(CO)[C@@H]6CC[C@@]5(C)[C@]3(C)C[C@H]4O)OC[C@H](O)[C@@H]2O)[C@H](O)[C@H](O)[C@H]1O[C@@H]1OC[C@@H](O)[C@H](O[C@@H]2OC[C@](O)(CO)[C@H]2O)[C@H]1O [Platycodin D, platycodin D] showed an IC50 [2] of 4.08 µM, an IC50 [3] of over 81.6 µM and an EC50 [4] of 0.35 µg/mL (≈ 0.286 µM). It also gave an EC50 [5] of 3 µg/mL (≈ 2.45 µM) and a CC50 [6] of 25 µg/mL (≈ 20.4 µM).
In the case of IFN-α, the “Combination Index at EC50” value [1] is reported as 0.45, the “Combination Index at EC75” value [1] is reported as 0.39 and the “Combination Index at EC90” value [1] is reported as 0.34. For the same compound, the Effect of combination [1] was “Synergistic”, the “Reduction of HCV RNA levels” value ([7]; IFN-α 10 U/mL) was 0.4 log10 and the “Reduction of HCV RNA levels” value ([7]; IFN-α 50 U/mL) was 0.8 log10. For the same compound, the “Reduction of HCV RNA levels” value ([7]; IFN-α 100 U/mL) was 1.5 log10 and the “Colony formation of HCV replicons” value [8] was “unable to inhibit colony formation”.
Work on C[C@@H]1O[C@@H](O[C@H]2[C@H](OC(=O)[C@]34CCC(C)(C)C[C@H]3C3=CC[C@@H]5[C@@]6(C)C[C@H](O)[C@H](O[C@@H]7O[C@H](CO)[C@@H](O)[C@H](O[C@@H]8O[C@H](CO)[C@@H](O)[C@H](O)[C@H]8O)[C@H]7O)C(CO)(CO)[C@@H]6CC[C@@]5(C)[C@]3(C)C[C@H]4O)OC[C@H](O)[C@@H]2O)[C@H](O)[C@H](O)[C@H]1O[C@@H]1OC[C@@H](O)[C@H](O[C@@H]2OC[C@](O)(CO)[C@H]2O)[C@H]1O [Platycodin D2, platycodin D2] yielded an IC50 [2] of 4.32 µM, an IC50 [3] of over 72.1 µM and an EC50 [4] of 1.05 µg/mL (≈ 0.757 µM). For the same compound, the EC50 [5] was 12 µg/mL (≈ 8.65 µM) and the CC50 [6] was 25 µg/mL (≈ 18 µM).
In the case of CC1OC(OC2C(OC(=O)C34CCC(C)(C)CC3C3=CCC5C6(C)CC(O)C(OC7OC(CO)C(O)C(OC8OC(CO)C(O)C(O)C8O)C7O)C(CO)(CO)C6CCC5(C)C3(C)CC4O)OC(CO)C2O)C(O)C(O)C1OC1OCC(O)C(O)C1O (stereo not drawn) [Deapioplatycodin D2, deapioplatycodin D2], the IC50 [2, 9] is reported as 7.97 µM, the IC50 [3] is reported as over 79.7 µM and the EC50 [4] is reported as 0.89 µg/mL (≈ 0.709 µM). For the same compound, the EC50 [5] was 8 µg/mL (≈ 6.37 µM) and the CC50 [6] was 100 µg/mL (≈ 79.7 µM).
